# Measurements: US20260355165A1, “2,3,4,9-TETRAHYDRO-1H-PYRIDO[3,4-B]INDOLE DERIVATIVES AS ESTROGEN RECEPTOR MODULATORS FOR THE TREATMENT OF CANCER” (Olema Pharmaceuticals, Inc., priority 2022, published 2026)
# Molecular target: T1, estrogen receptor (Homo sapiens, UniProt P03372)
# T1 construct: endogenous in cells; host or cells: ECC-1 cells
# T1 sequence (P03372 1-595): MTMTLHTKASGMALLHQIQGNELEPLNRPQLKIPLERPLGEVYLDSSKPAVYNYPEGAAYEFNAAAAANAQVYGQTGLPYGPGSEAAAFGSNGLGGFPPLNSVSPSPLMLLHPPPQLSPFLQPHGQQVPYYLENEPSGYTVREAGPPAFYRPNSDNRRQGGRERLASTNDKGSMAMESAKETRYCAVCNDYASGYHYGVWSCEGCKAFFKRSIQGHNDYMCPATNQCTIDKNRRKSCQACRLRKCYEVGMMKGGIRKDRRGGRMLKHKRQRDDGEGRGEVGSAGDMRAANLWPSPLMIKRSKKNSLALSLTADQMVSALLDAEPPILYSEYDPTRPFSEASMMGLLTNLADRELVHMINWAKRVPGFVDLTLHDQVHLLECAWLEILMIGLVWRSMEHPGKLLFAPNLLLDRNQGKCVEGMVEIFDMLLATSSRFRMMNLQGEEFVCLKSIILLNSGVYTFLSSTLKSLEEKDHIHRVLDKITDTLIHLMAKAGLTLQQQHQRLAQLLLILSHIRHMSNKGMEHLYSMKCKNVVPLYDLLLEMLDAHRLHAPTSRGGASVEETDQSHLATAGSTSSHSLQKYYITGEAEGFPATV
# Assay: AP assay (alkaline phosphatase activity in ECC-1 cells), agonist mode (absence of E2) and antagonist mode (presence of 500 pM E2)
# Type: cell-based
# Settings: 3 days, AP activity normalized to 500 pM E2 alone, agonist and antagonist mode combined
# Outline: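 Read-out is absorbance at 405 nm from p-nitrophenyl phosphate cleavage (40 min, 42 °C), expressed relative to 500 pM E2 alone. Compounds were applied to ECC-1 cells in hormone-depleted medium for 3 days, either alone (agonist) or alongside 500 pM E2 (antagonist).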
row,Structure (SMILES),"Activity (estrogen receptor modulation, e.g., agonism and antagonism)"
1,"CC1CN(Cc2cc3cc([C@@H]4c5[nH]c6ccccc6c5C[C@@H](C)N4CC(C)(C)F)ccc3[nH]2)C1 [Compound I-42, (1R,3R)-2-(2-fluoro-2-methyl-propyl)-3-methyl-1-[2-[(3-methylazetidin-1-yl)methyl]-1H-indol-5-yl]-1,3,4,9-tetrahydropyrido[3,4-b]indole]",++ (estrogen receptor antagonism having (i) between 10% and 80% increase in the E2-normalized signal in the AP assay (agonist mode) and (ii) between 10% and 80% reduction in the E2-normalized signal in the AP assay (antagonist mode))
2,"C[C@@H]1Cc2c([nH]c3ccccc23)[C@@H](c2ccc3[nH]c(CN4CC5CC5C4)cc3c2)N1CC(C)(C)F (stereo partly drawn) [Compound I-43, (1R,3R)-1-[2-(3-azabicyclo[3.1.0]hexan-3-ylmethyl)-1H-indol-5-yl]-2-(2-fluoro-2-methyl-propyl)-3-methyl-1,3,4,9-tetrahydropyrido[3,4-b]indole]",+ (estrogen receptor agonism having (i) at least 80% increase in the E2-normalized signal in the AP assay (agonist mode) and (ii) no more than 80% reduction in the E2-normalized signal in the AP assay (antagonist mode))
3,"C[C@@H]1Cc2c([nH]c3ccccc23)[C@@H](c2ccc3[nH]c(CN4CC5(CCC5)C4)cc3c2)N1CC(C)(C)F [Compound I-44, (1R,3R)-1-[2-(2-azaspiro[3.3]heptan-2-ylmethyl)-1H-indol-5-yl]-2-(2-fluoro-2-methyl-propyl)-3-methyl-1,3,4,9-tetrahydropyrido[3,4-b]indole]",++ (estrogen receptor antagonism having (i) between 10% and 80% increase in the E2-normalized signal in the AP assay (agonist mode) and (ii) between 10% and 80% reduction in the E2-normalized signal in the AP assay (antagonist mode))
4,"C[C@@H]1Cc2c([nH]c3ccccc23)[C@@H](c2ccc3[nH]c(CN4CC(CF)C4)cc3c2)N1CC(F)(F)CO [Compound I-45, 2,2-difluoro-3-[(1R,3R)-1-[2-[[3-(fluoromethyl)azetidin-1-yl]methyl]-1H-indol-5-yl]-3-methyl-1,3,4,9-tetrahydropyrido[3,4-b]indol-2-yl]propan-1-ol]",+++ (estrogen receptor antagonism (i) with pIC50 greater than 7.5 and at least a 10% reduction in the E2-normalized signal in the AP assay (antagonist mode); and (ii) no more than 10% increase in E2-normalized signal in the AP assay (agonist mode))
5,"CC1CN(Cc2cc3cc([C@@H]4c5[nH]c6ccccc6c5C[C@@H](C)N4CC(F)(F)CO)ccc3[nH]2)C1 [Compound I-46, 2,2-difluoro-3-[(1R,3R)-3-methyl-1-[2-[(3-methylazetidin-1-yl)methyl]-1H-indol-5-yl]-1,3,4,9-tetrahydropyrido[3,4-b]indol-2-yl]propan-1-ol]",+++ (estrogen receptor antagonism (i) with pIC50 greater than 7.5 and at least a 10% reduction in the E2-normalized signal in the AP assay (antagonist mode); and (ii) no more than 10% increase in E2-normalized signal in the AP assay (agonist mode))
6,"C[C@@H]1Cc2c([nH]c3ccccc23)[C@@H](c2ccc3[nH]c(CN4CC[C@H](F)C4)cc3c2)N1CC(C)(C)F [Compound I-47, (1R,3R)-2-(2-fluoro-2-methyl-propyl)-1-[2-[[(3S)-3-fluoropyrrolidin-1-yl]methyl]-1H-indol-5-yl]-3-methyl-1,3,4,9-tetrahydropyrido[3,4-b]indole]",+ (estrogen receptor agonism having (i) at least 80% increase in the E2-normalized signal in the AP assay (agonist mode) and (ii) no more than 80% reduction in the E2-normalized signal in the AP assay (antagonist mode))
7,"C[C@@H]1Cc2c([nH]c3ccccc23)[C@@H](c2ccc3[nH]c(CN4CC(C(C)(C)O)C4)cc3c2)N1CC(C)(C)F [Compound I-48, 2-[1-[[5-[(1R,3R)-2-(2-fluoro-2-methyl-propyl)-3-methyl-1,3,4,9-tetrahydropyrido[3,4-b]indol-1-yl]-1H-indol-2-yl]methyl]azetidin-3-yl]propan-2-ol]",+ (estrogen receptor agonism having (i) at least 80% increase in the E2-normalized signal in the AP assay (agonist mode) and (ii) no more than 80% reduction in the E2-normalized signal in the AP assay (antagonist mode))
8,"C[C@@H]1Cc2c([nH]c3ccccc23)[C@@H](c2ccc3[nH]c(CN4CC5(C4)CC(O)(C(F)F)C5)cc3c2)N1CC(C)(C)F [Compound I-49, 6-(difluoromethyl)-2-[[5-[(1R,3R)-2-(2-fluoro-2-methyl-propyl)-3-methyl-1,3,4,9-tetrahydropyrido[3,4-b]indol-1-yl]-1H-indol-2-yl]methyl]-2-azaspiro[3.3]heptan-6-ol]",+ (estrogen receptor agonism having (i) at least 80% increase in the E2-normalized signal in the AP assay (agonist mode) and (ii) no more than 80% reduction in the E2-normalized signal in the AP assay (antagonist mode))
9,"C[C@@H]1Cc2c([nH]c3ccccc23)[C@@H](c2ccc3[nH]c(CN4CC(C#N)C4)cc3c2)N1CC(C)(C)F [Compound I-50, 1-[[5-[(1R,3R)-2-(2-fluoro-2-methyl-propyl)-3-methyl-1,3,4,9-tetrahydropyrido[3,4-b]indol-1-yl]-1H-indol-2-yl]methyl]azetidine-3-carbonitrile]",+ (estrogen receptor agonism having (i) at least 80% increase in the E2-normalized signal in the AP assay (agonist mode) and (ii) no more than 80% reduction in the E2-normalized signal in the AP assay (antagonist mode))
10,"COCC1CN(Cc2cc3cc([C@@H]4c5[nH]c6ccccc6c5C[C@@H](C)N4CC(C)(C)F)ccc3[nH]2)C1 [Compound I-51, (1R,3R)-2-(2-fluoro-2-methyl-propyl)-1-[2-[[3-(methoxymethyl)azetidin-1-yl]methyl]-1H-indol-5-yl]-3-methyl-1,3,4,9-tetrahydropyrido[3,4-b]indole]",+ (estrogen receptor agonism having (i) at least 80% increase in the E2-normalized signal in the AP assay (agonist mode) and (ii) no more than 80% reduction in the E2-normalized signal in the AP assay (antagonist mode))
11,"C[C@@H]1Cc2c([nH]c3ccccc23)[C@@H](c2ccc3[nH]c(CN4CC5(CC(F)C5)C4)cc3c2)N1CC(C)(C)F [Compound I-52, (1R,3R)-1-[2-[(6-fluoro-2-azaspiro[3.3]heptan-2-yl)methyl]-1H-indol-5-yl]-2-(2-fluoro-2-methyl-propyl)-3-methyl-1,3,4,9-tetrahydropyrido[3,4-b]indole]",++ (estrogen receptor antagonism having (i) between 10% and 80% increase in the E2-normalized signal in the AP assay (agonist mode) and (ii) between 10% and 80% reduction in the E2-normalized signal in the AP assay (antagonist mode))
12,"C[C@@H]1Cc2c([nH]c3ccccc23)[C@@H](c2ccc3[nH]c(CN4CC5(CC(O)C5)C4)cc3c2)N1CC(C)(C)F [Compound I-53, 2-[[5-[(1R,3R)-2-(2-fluoro-2-methyl-propyl)-3-methyl-1,3,4,9-tetrahydropyrido[3,4-b]indol-1-yl]-1H-indol-2-yl]methyl]-2-azaspiro[3.3]heptan-6-ol]",+ (estrogen receptor agonism having (i) at least 80% increase in the E2-normalized signal in the AP assay (agonist mode) and (ii) no more than 80% reduction in the E2-normalized signal in the AP assay (antagonist mode))
13,"C[C@@H]1Cc2c([nH]c3ccccc23)[C@@H](c2ccc3[nH]c(CN4CC5(COC5)C4)cc3c2)N1CC(C)(C)F [Compound I-54, 6-[[5-[(1R,3R)-2-(2-fluoro-2-methyl-propyl)-3-methyl-1,3,4,9-tetrahydropyrido[3,4-b]indol-1-yl]-1H-indol-2-yl]methyl]-2-oxa-6-azaspiro[3.3]heptane]",+ (estrogen receptor agonism having (i) at least 80% increase in the E2-normalized signal in the AP assay (agonist mode) and (ii) no more than 80% reduction in the E2-normalized signal in the AP assay (antagonist mode))
14,"C[C@@H]1Cc2c([nH]c3ccccc23)[C@@H](c2ccc3cc(CN4CC(CF)C4)[nH]c3c2)N1CC(C)(C)F [Compound I-55, (1R,3R)-1-[2-[[3-(fluoromethyl)azetidin-1-yl]methyl]-1H-indol-6-yl]-2-(2-fluoro-2-methyl-propyl)-3-methyl-1,3,4,9-tetrahydropyrido[3,4-b]indole]",+ (estrogen receptor agonism having (i) at least 80% increase in the E2-normalized signal in the AP assay (agonist mode) and (ii) no more than 80% reduction in the E2-normalized signal in the AP assay (antagonist mode))
15,"C[C@@H]1Cc2c([nH]c3ccccc23)[C@@H](c2cc3ccc(CN4CC(CF)C4)cc3[nH]2)N1CC(C)(C)F [Compound I-56, (1R,3R)-1-[6-[[3-(fluoromethyl)azetidin-1-yl]methyl]-1H-indol-2-yl]-2-(2-fluoro-2-methyl-propyl)-3-methyl-1,3,4,9-tetrahydropyrido[3,4-b]indole]",+ (estrogen receptor agonism having (i) at least 80% increase in the E2-normalized signal in the AP assay (agonist mode) and (ii) no more than 80% reduction in the E2-normalized signal in the AP assay (antagonist mode))
